Results on 35 molecules are retold here after patent US20220274961A1, “SUBSTITUTED FUSED BI- OR TRI- HETEROCYCLIC COMPOUNDS AS EHMT2 INHIBITORS” (priority 2016, published 2022).

The structures appear in SMILES notation.

Usually IC50 stands for the midpoint of a concentration-inhibition curve.

The target of one assay is T1, EHMT2 (Homo sapiens, UniProt Q96KQ7).
T1 construct: endogenous in cells; host or cells: MDA-MB-231 (ATCC)
T1 sequence (Q96KQ7 1-1210): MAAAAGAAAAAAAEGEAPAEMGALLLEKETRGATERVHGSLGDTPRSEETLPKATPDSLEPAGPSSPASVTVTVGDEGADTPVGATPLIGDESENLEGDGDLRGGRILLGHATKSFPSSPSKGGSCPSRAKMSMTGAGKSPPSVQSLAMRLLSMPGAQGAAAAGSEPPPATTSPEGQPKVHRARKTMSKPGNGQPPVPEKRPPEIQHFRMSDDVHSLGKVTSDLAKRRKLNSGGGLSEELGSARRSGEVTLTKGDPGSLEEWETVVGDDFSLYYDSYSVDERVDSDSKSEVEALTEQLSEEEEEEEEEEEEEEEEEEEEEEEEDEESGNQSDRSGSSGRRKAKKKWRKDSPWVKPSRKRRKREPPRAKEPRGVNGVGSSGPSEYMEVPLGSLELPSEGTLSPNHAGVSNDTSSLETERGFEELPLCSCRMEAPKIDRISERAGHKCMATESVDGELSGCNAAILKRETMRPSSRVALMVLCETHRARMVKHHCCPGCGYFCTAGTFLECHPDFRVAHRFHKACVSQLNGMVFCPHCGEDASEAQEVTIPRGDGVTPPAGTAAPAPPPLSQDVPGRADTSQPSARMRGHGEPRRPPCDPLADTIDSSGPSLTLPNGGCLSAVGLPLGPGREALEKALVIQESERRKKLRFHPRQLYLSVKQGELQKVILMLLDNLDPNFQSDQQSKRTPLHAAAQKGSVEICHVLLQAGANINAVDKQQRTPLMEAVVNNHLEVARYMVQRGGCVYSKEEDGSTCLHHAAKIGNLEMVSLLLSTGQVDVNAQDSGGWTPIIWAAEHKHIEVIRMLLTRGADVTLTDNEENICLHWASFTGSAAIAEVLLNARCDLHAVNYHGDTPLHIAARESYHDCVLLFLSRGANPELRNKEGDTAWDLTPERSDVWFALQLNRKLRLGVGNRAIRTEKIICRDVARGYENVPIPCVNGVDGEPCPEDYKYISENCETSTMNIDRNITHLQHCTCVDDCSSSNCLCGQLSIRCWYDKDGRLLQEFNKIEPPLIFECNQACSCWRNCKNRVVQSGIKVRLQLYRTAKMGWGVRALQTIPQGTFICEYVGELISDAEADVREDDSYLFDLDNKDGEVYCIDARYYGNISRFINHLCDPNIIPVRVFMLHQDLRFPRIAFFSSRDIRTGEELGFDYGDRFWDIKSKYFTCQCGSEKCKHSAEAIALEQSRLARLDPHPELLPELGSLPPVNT
The assay can be described thus: MDA-MB-231 H3K9me2 in-cell Western assay (EHMT2 ICW). The class given is cell-based.
Conditions: not given
The source says: MDA-MB-231 cell line was purchased from ATCC (Manassas, Va., USA). RPMI/Glutamax medium, Penicillin-Streptomycin, Heat Inactivated Fetal Bovine Serum, and D-PBS were purchased from Life Technologies (Grand Island, N.Y., USA). Odyssey blocking buffer, 800CW goat anti-mouse IgG (H+L) antibody, and Licor Odyssey Infrared Scanner were purchased from Licor Biosciences, Lincoln, Nebr., USA. H3K9me2 mouse monoclonal antibody (Cat #1220) was purchased from Abcam (Cambridge, Mass., USA). 16% Paraformaldehyde was purchased from Electron Microscopy Sciences, Hatfield, Pa., USA). MDA-MB-231 cells were maintained in complete growth medium (RPMI supplemented with 10% v/v heat inactivated fetal bovine serum) and cultured at 37° C. under 5% CO2. UNC0638 was purchased from Sigma-Aldrich (St. Louis, Mo., USA).
General Procedure for MDA-MB-231 HEK9me2 in-cell Western Assay. Compound (100 nL) was added directly to 384-well cell plate. MDA-MB-231 cells (ATCC) were seeded in assay medium (RPMI/Glutamax supplemented with 10% v/v heat inactivated fetal bovine serum and 1% Penicillin/Streptomycin, Life Technologies) at a concentration of 3,000 cells per well to a Poly-D-Lysine coated 384-well cell culture plate with 50 μL per well. Plates were incubated at 37° C., 5% CO2 for 48 hours (BD Biosciences 356697). Plates were incubated at room temperature for 30 minutes and then incubated at 37° C., 5% CO2 for additional 48 hours. After the incubation, 50 μL per well of 8% paraformaldehyde (Electron Microscopy Sciences) in PBS was added to the plates and incubated at room temperature for 20 minutes. Plates were transferred to a Biotek 406 plate washer and washed 2 times with 100 μL per well of wash buffer (1×PBS containing 0.3% Triton X-100 (v/v)). Next, 60 μL per well of Odyssey blocking buffer (Licor Biosciences) was added to each plate and incubated for 1 hour at room temperature. Blocking buffer was removed and 20 μL of monoclonal primary antibody α-H3K9me2 (Abcam) diluted 1:800 in Odyssey buffer with 0.1% Tween 20 (v/v) were added and plates were incubated overnight (16 hours) at 4° C. Plates were washed 5 times with 100 μL per well of wash buffer. Next 20 μL per well of secondary antibody was added (1:500 800CW donkey anti-mouse IgG (H+L) antibody (Licor Biosciences), 1:1000 DRAQ5 (Cell Signaling Technology) in Odyssey buffer with 0.1% Tween 20 (v/v)) and incubated for 1 hour at room temperature. The plates were washed 5 times with […] wash buffer then 2 times with 100 μL per well of water. Plates were allowed to dry at room temperature then imaged on a Licor Odyssey Infrared Scanner (Licor Biosciences) which measured integrated intensity at 700 nm and 800 nm wavelengths. Both 700 and 800 channels were scanned.
% Inhibition Calculation. First, the ratio for each well was determined by:
Each plate included fourteen control wells of DMSO only treatment (Minimum Inhibition) as well as fourteen control wells (background wells) for maximum inhibition treated with control compound UNC0638 (Background wells).
The average of the ratio values for each well was calculated and used to determine the percent inhibition for each test well in the plate. Control compound was serially diluted three-fold in DMSO for a total of 10 test concentrations beginning at 1 μM. Percent inhibition was calculated as: […]
IC50 curves were generated using triplicate wells per concentration of compound. The IC50 is the concentration of compound at which measured methylation is inhibited by 50% as interpolated from the dose response curves. IC50 values were calculated using a non-linear regression (variable slope-four parameter fit model) with by the following formula:
where Top is fixed at 100% and Bottom is fixed to 0%, [I]=concentration of inhibitor, IC50=half maximal inhibitory concentration, and n=Hill Slope.
Regarding `COc1cc2c(cc1OCCCN1CCCC1)N=C(N)C21CCOC1` (centres unmarked) [Compound 7, 5′-methoxy-6′-(3-(pyrrolidin-1-yl)propoxy)-4,5-dihydro-2H-spiro[furan-3,3′-indol]-2′-amine], the half-inhibitory concentration (IC50) lay within 0.1 to 1 µM.

Still in this assay, the particulars now being: MDA-MB-231 cells, H3K9me2 in-cell Western; read-out: EHMT2 ICW (IC50 μM).
For the molecule `CNc1nc2cc(OC[C@H](O)CN3CCCC3)c(OC)cc2n1C1CCCC1` [Compound 38], the half-maximal inhibitory concentration (IC50) was 0.1 to 1 µM.
Turning to `CCN1CC[C@@H](COc2cc3nc(N)n(C4CCCC4)c3cc2OC)C1` [Compound 9, 1-cyclopentyl-5-[[(3R)-1-ethylpyrrolidin-3-yl]methoxy]-6-methoxy-1H-1,3-benzodiazol-2-amine], the IC50 fell in the range of 0.1 to 1 µM.
Regarding `COc1cc2c(cc1OCCCN1CCCC1)nc(N)n2C1CCCC1` [Compound 3, 1-cyclopentyl-6-methoxy-5-(3-(pyrrolidin-1-yl)propoxy)-1H-benzo[d]imidazol-2-amine], the IC50 was in the range of 0.1 to 1 µM.
`CNc1nc2cc(CNCCN3CCCC3)c(OC)cc2n1C` [Compound 37]: the IC50 is 0.1 to 1 µM.
Take `COCCNC1=Nc2cc(C#CCN3CCCCC3)c(OC)cc2C12CCC2` [Compound 99]: the IC50 was 0.1 to 1 µM.
Turning to `CCNC1=Nc2cc(CNCCN3CCC3)c(OC)cc2C12CCC2` [Compound 72], the IC50 lay in the range of 1 to 10 µM.
`COc1cc2c(cc1OCCCN1CCCC1)nc(N)n2C(C)C` [Compound 19]: the IC50 lay within 0.1 to 1 µM.
Turning to `CCNC1=Nc2cc(CNCCN3CCCC3)c(OC)cc2C12CCC2` [Compound 71], the IC50 lay within 1 to 10 µM.
On the same count and under the same terms, with `CNc1nc2cc(OC[C@H](O)CN3CCC3)c(OC)cc2n1C` [Compound 25] the figure was 0.1 to 1 µM; with `CNc1nc2cc(CNCCN3CCCC3)c(OC)cc2n1C(C)C` [Compound 40], 1 to 10 µM; with `CNc1nc2cc(OC[C@H](O)CN3CCCC3)c(OC)cc2n1C` [Compound 26], 0.1 to 1 µM.
As for `CCn1c(NC)nc2cc(OCCCN3CCCC3)c(OC)cc21` [Compound 42], the IC50 is under 0.1 µM.
Consider `COc1cc2c(cc1OCCCN1CCCC1)nc(N)n2CC1CCOCC1` [Compound 18], for which the IC50 fell in the range of 1 to 10 µM.
On the same count and under the same terms, in the case of `COc1cc2c(cc1OCCCN1CCCC1)N=C(N)C21CCOCC1` [Compound 5, 5-methoxy-6-(3-(pyrrolidin-1-yl)propoxy)-2′,3′,5′,6′-tetrahydrospiro[indole-3,4′-pyran]-2-amine] it was 0.1 to 1 µM; in that of `CNc1nc2cc(OCCCN3CCCC3)c(OC)cc2n1C` [Compound 8, 6-methoxy-N,1-dimethyl-5-(3-(pyrrolidin-1-yl)propoxy)-1H-benzo[d]imidazol-2-amine], under 0.1 µM.
Consider `CNC1=Nc2cc(C#C[C@@H](C)N3CCCC3)c(OC)cc2C12CCC2` [Compound 86], for which the IC50 lay in the range of 0.1 to 1 µM.
On the same count and under the same terms, with `CNC1=Nc2cc(C#CC(C)N3CCCC3)c(OC)cc2C12CCC2` (centres unmarked) [Compound 84] the figure was 0.1 to 1 µM.
`COc1cc2sc(N)nc2cc1OCCCN1CCCC1` [Compound 6, 6-methoxy-5-[3-(pyrrolidin-1-yl)propoxy]-1,3-benzothiazol-2-amine]: the IC50 was over 10 µM.
Same read-out and setting: in the case of `COc1cc2c(cc1OC[C@H](O)CN1CCCC1)nc(NC(C)C)n2C` [Compound 32] it was 1 to 10 µM; in that of `CNc1nc2cc(OCCCN3CCCC3)c(OC)cc2n1C1CCOCC1` [Compound 13, 6-methoxy-N-methyl-5-(3-(pyrrolidin-1-yl)propoxy)-1-(tetrahydro-2H-pyran-4-yl)-1H-benzo[d]imidazol-2-amine], 0.1 to 1 µM; in that of `CNC1=Nc2cc(C#CC(C)N3CCCCC3)c(OC)cc2C12CCC2` (centres unmarked) [Compound 92], 0.1 to 1 µM.
For `COc1cc2c(cc1OCCCN1CCCC1)nc(N)n2C` [Compound 2, 6-methoxy-1-methyl-5-(3-(pyrrolidin-1-yl)propoxy)-1H-benzo[d]imidazol-2-amine], the IC50 fell in the range of 0.1 to 1 µM.
As to `CCN1CC(COc2cc3nc(N)n(C4CCCC4)c3cc2OC)C1` [Compound 10, 1-cyclopentyl-5-((1-ethylazetidin-3-yl)methoxy)-6-methoxy-1H-benzo[d]imidazol-2-amine], the IC50 is 0.1 to 1 µM.
With `COc1cc2c(cc1OCCCN1CCCC1)nc(NC1CCOCC1)n2C` [Compound 29], the IC50 fell in the range of 1 to 10 µM.
Turning to `CNC1=Nc2cc(CNCCN3CCCC3)c(OC)cc2C12CCC2` [Compound 70], the IC50 is 0.1 to 1 µM.
Take `COc1cc2c(cc1OCCCN1CCCC1)nc(C)n2C` [Compound 21, 6-methoxy-1,2-dimethyl-5-(3-(pyrrolidin-1-yl)propoxy)-1H-benzo[d]imidazole]: the IC50 is over 10 µM.
As to `COc1cc2c(cc1OC[C@H](O)CN1CCCC1)nc(NCC1CC1)n2C` [Compound 34], the IC50 lay in the range of 0.1 to 1 µM.
Consider `CNc1nc2cc(CNCCN3CCCC3)c(C)cc2n1C(C)C` [Compound 139], for which the IC50 lay in the range of 1 to 10 µM.
For `COc1cc2c(cc1OCCCN1CCCC1)nc(C1CCCC1)n2C` [Compound 22, 2-cyclopentyl-6-methoxy-1-methyl-5-(3-(pyrrolidin-1-yl)propoxy)-1H-benzo[d]imidazole], the IC50 is over 10 µM.
On to `CNC1=Nc2cc(C#C[C@H](C)N3CCCC3)c(OC)cc2C12CCC2` [Compound 85], for which the IC50 is under 0.1 µM.
Take `CNC1=Nc2cc(C#CCN3CCCC3)c(OC)cc2C12CCC2` [Compound 74]: the IC50 was under 0.1 µM.
In the case of `COc1cc2[nH]c(N)nc2cc1OCCCN1CCCC1` [Compound 1, 6-methoxy-5-(3-(pyrrolidin-1-yl)propoxy)-1H-benzo[d]imidazol-2-amine], the IC50 was 1 to 10 µM.
With `CCNc1nc2cc(OC[C@H](O)CN3CCCC3)c(OC)cc2n1C` [Compound 31], the IC50 lay within 0.1 to 1 µM.
Take `COc1cc2c(cc1OCCCN1CCCC1)nc(C)n2C1CCCC1` [Compound 23, 1-cyclopentyl-6-methoxy-2-methyl-5-(3-(pyrrolidin-1-yl)propoxy)-1H-benzo[d]imidazole]: the IC50 is 1 to 10 µM.
